{
  "source": "patent US20230146795A1",
  "about": "“ENHANCEMENT OF ANTI-TUMOR ACTIVITY OF SHP2 INHIBITOR PYRIMIDINONE IN COMBINATION WITH NOVEL CANCER MEDICINES IN CANCERS” (TAIHO PHARMACEUTICAL CO., LTD., priority 2020, published 2023)",
  "key": {"[1]": {"tested_on": "97 cell lines harboring driver mutations in KRAS", "test": "In vitro cell line screening, 3D cultures (CellTiter-Glo 3D), KRAS panel", "assay_type": "cell-based, human", "conditions": "sensitive = maximum inhibition greater than 50% relative to DMSO, max 3 μM Compound 1, 1 μM Compound 9, 120-hour incubation", "experimental": "The effect of Compound 1 in combination with an ERK inhibitor, Compound 9, on 97 cell lines harboring driver mutations in KRAS (G12A, G12C, G12F, G12R, G12S, G12V, G13C, G13D, A59G, Q61H, Q61K, Q61L or A146T) was assessed using the following technique. Cells from human cancer cells lines (from commercial sources such as ATCC or ECCAC) were grown as 3D cultures by seeding cells into round-bottom ultra-low attachment 96-well tissue culture plates (Corning) followed by centrifugation. Cells were allowed to recover for 16-24 hours prior to compound treatment. Compounds or dimethyl sulfoxide (DMSO) were added at various combinations of compound concentrations in a final DMSO concentration of up to 0.5% (v/v). Following a total of 120-hour incubation, CellTiter-Glo 3D Reagent(registered trademark) (Promega) was added. Plates were incubated for 10 minutes with gentle shaking at room temperature to lyse the cells, then incubated for further 40 minutes at room temperature to stabilize luminescence signal. After mixing, the mixture was transferred to a fresh plate and luminescence was determined on EnVision plate reader (Perkin Elmer).\n(§1) For both 3D and 2D assays, the combination was tested as matrix of various concentrations of Compound 1 and Compound 9. The maximum concentrations of Compound 1 and Compound 9 used were 3 μM and 1 μM, respectively. Signals were normalized to that of the average of the DMSO control wells. […] For each cell line, the maximum % inhibition values were obtained for Compound 1 alone, Compound 9 alone and the combination of both compounds. The degree of drug interaction (i.e. synergy, additivity or antagonism) was quantified for each cell line by the Bliss independence model using the Synergyfinder R package (Ref: He L. et al. (2018) Methods for High-throughput Drug Combination Screening and Synergy Scoring. In: von Stechow L. (eds) Cancer Systems Biology. Methods in Molecular Biology, vol 1711. Humana Press, New York, N.Y.). For each cell line, a single score metric, the sum of synergy and antagonism across screened drug concentrations (SUM_SYN_ANT) (Ref: Di Veroli G. Y. et al (2016) Bioinformatics 32(18):2866-2868), was calculated. Synergy was defined as a score of 21 or above."}, "[2]": {"tested_on": "human colorectal cancer cell line SW837", "test": "Antitumor effect on SW837 tumor subcutaneously implanted to SCID-Beige mouse", "assay_type": "in vivo", "conditions": "Compound 1 alone, 25 mg/kg/day orally once a day for 28 days; day of assessment", "experimental": "The day at which the grouping was carried out was defined as Day 0."}, "[3]": {"tested_on": "human pancreatic cancer cell line MIA PaCa-2 (KRAS mutation)", "test": "Antitumor effect on MIA PaCa-2 tumor subcutaneously implanted to CB17 SCID mouse", "assay_type": "in vivo", "conditions": "for T/C: once a day, Day 18", "experimental": "MIA PaCa-2 cell line carries KRAS mutation.\nA human pancreatic cancer line, MIA PaCa-2 (available from American Type Culture Collection), suspended in a mixture of PBS and Matrigel was subcutaneously implanted to male CB17 SCID mice at 7-10 weeks of age (Charles River UK) at 5×10^6 cells/100 μl/mouse. Tumors were measured with a pair of digital calipers, and tumor volumes (TV) were calculated by applying the formula for ellipsoid. Mice with TV of 146 to 360 mm^3 were assigned to study groups such that average TV was equal among groups.\nOral administration of Compound 1 or its vehicle, and Compound 9 or its vehicle was started on Day 1. Compound 1 was dissolved in an acidified solution of 0.5% (w/v) hydroxypropyl methylcellulose (Sigma) and administered via oral gavage at 6 or 12 mg/kg/day. Compound 9 was suspended in 20% (v/v) PEG200 (Sigma) and 0.5% (w/v) methylcellulose (Sigma) and administered via oral gavage at 50 mg/kg/day. All treatments were given once a day for 21 consecutive days, except for the combination group receiving 12 mg/kg of Compound 1 and 50 mg/kg of Compound 9, in which the animals were treated for 5 days per week for 3 weeks.\nAntitumor effects were evaluated by comparing the median relative tumor volumes (RTV) between control- and treated groups. RTV was calculated by dividing TV on any test day by TV on Day 1, expressed as a percentage. T/C (%), as a measure of anti-tumor activity, was calculated by dividing median RTV values of each compound-administered group by median RTV of the control group receiving both vehicles."}, "[4]": {"tested_on": "394 cell lines that do not depend on KRAS", "test": "In vitro cell line screening, 2D monolayers (CellTiter-Glo), KRAS-independent panel", "assay_type": "cell-based, human", "conditions": "Non-KRAS panel, sensitive = maximum inhibition greater than 50% relative to DMSO, max 3 μM Compound 1, 1 μM Compound 9, 120-hour incubation", "experimental": "Cells from human cancer cells lines (from commercial sources such as ATCC or ECCAC) were grown as 2D monolayers by seeding onto flat-bottom 96-well tissue culture plates (Corning). Cells were allowed to recover for 16-24 hours prior to compound treatment. Compounds or dimethyl sulfoxide (DMSO) were added at various combinations of compound concentrations in a final DMSO concentration of up to 0.5% (v/v). Following a total of 120-hour incubation, CellTiter-Glo reagent(registered trademark) (Promega) was added. Plates were incubated for 10 minutes with gentle shaking at room temperature to lyse the cells, then incubated for further 10 minutes at room temperature to stabilize luminescence signal. After mixing, the mixture was transferred to a fresh plate, and luminescence was determined on EnVision plate reader (Perkin Elmer).\nas §1"}},
  "data": [
    {"smiles": "Cn1nc2ccc(-c3c[nH]c4nc(N5[C@H]6CC[C@@H]5[C@H](N)C6)n(C)c(=O)c34)c(Cl)c2c1Cl", "note": "[Compound 1, 2-((1R,2R,4S)-2-amino-7-azabicyclo[2.2.1]heptan-7-yl)-5-(3,4-dichloro-2-methyl-2H-indazol-5-yl)-3-methyl-3,7-dihydro-4H-pyrrolo[2,3-d]pyrimidin-4-one]", "values": [
      {"measurement": "Number of cell lines sensitive", "setting": "[1]", "result": 38},
      {"measurement": "Number of cell lines sensitive (% of total)", "setting": "[1]", "result": "(39.2) %"},
      {"measurement": "T/C (%)", "setting": "[2]", "result": 65.0, "unit": "%"},
      {"measurement": "tumor response", "setting": "[3]; Compound 1 alone 6 mg/kg/day", "result": "transient stasis"},
      {"measurement": "T/C", "setting": "[3]; Compound 1 alone 6 mg/kg/day oral", "result": 58, "unit": "%"},
      {"measurement": "partial regression (tumor shrinkage of 50% or above), mice", "setting": "[3]; Compound 1 alone 12 mg/kg/day", "result": "2 out of 8"},
      {"measurement": "tumor response", "setting": "[3]; Compound 1 alone 12 mg/kg/day", "result": "tumor stasis"},
      {"measurement": "T/C", "setting": "[3]; Compound 1 alone 12 mg/kg/day oral", "result": 33, "unit": "%"},
      {"measurement": "Number of cell lines sensitive", "setting": "[4]", "result": 137},
      {"measurement": "Number of cell lines sensitive (% of total)", "setting": "[4]", "result": "(34.8) %"}
    ]}
  ]
}
